Legend:
human TLR7 = biological target: T1, human TLR7 (Homo sapiens, UniProt Q9NYK1); experiment: Human TLR7 reporter gene assay (Test 1); type: cell-based; details: half-maximal SEAP induction, TLR7/NF-κB/SEAPorter HEK293 cell line, overnight 37° C., 0.1% DMSO
T1 construct: expresses full-length human TLR7 and secretory alkaline phosphatase (SEAP) reporter gene; host or cells: TLR7/NF-κB/SEAPorter HEK293 cell line
T1 sequence (Q9NYK1 27-1049): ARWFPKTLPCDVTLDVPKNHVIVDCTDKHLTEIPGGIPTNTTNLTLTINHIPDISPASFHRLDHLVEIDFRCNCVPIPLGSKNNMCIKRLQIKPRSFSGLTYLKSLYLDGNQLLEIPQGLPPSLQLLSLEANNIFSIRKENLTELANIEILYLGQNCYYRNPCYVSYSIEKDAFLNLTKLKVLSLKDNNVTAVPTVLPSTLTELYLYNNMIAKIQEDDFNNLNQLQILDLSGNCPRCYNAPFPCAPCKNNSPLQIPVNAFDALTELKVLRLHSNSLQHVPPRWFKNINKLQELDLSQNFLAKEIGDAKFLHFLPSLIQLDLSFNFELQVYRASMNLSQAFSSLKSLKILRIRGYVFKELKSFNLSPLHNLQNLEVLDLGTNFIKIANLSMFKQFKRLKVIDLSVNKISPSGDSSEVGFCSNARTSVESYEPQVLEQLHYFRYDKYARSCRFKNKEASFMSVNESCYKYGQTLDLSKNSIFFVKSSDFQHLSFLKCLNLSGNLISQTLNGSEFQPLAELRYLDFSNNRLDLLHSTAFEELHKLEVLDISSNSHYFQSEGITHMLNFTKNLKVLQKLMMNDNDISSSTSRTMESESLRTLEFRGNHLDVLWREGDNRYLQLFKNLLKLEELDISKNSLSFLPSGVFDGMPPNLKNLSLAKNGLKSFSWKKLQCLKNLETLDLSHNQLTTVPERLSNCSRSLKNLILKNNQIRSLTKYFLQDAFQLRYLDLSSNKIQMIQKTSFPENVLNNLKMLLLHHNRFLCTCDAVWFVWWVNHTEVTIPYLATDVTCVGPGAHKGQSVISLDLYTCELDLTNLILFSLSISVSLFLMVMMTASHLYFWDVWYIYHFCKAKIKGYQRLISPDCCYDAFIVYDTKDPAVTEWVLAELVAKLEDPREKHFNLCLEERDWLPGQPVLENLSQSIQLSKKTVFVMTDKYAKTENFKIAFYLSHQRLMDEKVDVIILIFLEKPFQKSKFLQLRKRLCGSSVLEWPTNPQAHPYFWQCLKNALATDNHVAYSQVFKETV
Excerpt: TLR7/NF-κB/SEAPorter™ HEK293 cell line (Imgenex Corporation) is a stably co-transfected cell line which expresses full-length human TLR7 and secretory alkaline phosphatase (SEAP) reporter gene under the transcriptional regulation of an NF-κB response element. The TLR7 expression of the cell line has been already tested by flow cytometry. Transfectants with stable expression were selected using the antibiotic blasticidin and Geneticin. TLR signaling leads to the translocation of NF-κB and the activation of the promoter results in expression of the SEAP gene. TLR7-specific activation was assessed by determining the level of SEAP produced following overnight incubation of the cells at 37° C. with each compound prepared in Examples and Reference examples in the presence of 0.1% (v/v) dimethylsulfoxide (DMSO). The human TLR7 activity for the present compound was assessed by human TLR7 reporter gene assay, and the results are shown in Tables 6 and 7 as the compound concentration which produced half of the maximal level of SEAP induction (EC50).

mouse TLR7 = biological target: T2, mouse TLR7 (Mus musculus, UniProt P58681); experiment: Mouse TLR7 reporter gene assay (Test 2); type: cell-based; details: half-maximal SEAP induction, HEK-Blue mTLR7 cell line, overnight 37° C., 0.1% DMSO
T2 construct: expresses full-length mouse TLR7 and secretory SEAP reporter gene; host or cells: HEK-Blue mTLR7 cell line
T2 sequence (P58681 27-1050): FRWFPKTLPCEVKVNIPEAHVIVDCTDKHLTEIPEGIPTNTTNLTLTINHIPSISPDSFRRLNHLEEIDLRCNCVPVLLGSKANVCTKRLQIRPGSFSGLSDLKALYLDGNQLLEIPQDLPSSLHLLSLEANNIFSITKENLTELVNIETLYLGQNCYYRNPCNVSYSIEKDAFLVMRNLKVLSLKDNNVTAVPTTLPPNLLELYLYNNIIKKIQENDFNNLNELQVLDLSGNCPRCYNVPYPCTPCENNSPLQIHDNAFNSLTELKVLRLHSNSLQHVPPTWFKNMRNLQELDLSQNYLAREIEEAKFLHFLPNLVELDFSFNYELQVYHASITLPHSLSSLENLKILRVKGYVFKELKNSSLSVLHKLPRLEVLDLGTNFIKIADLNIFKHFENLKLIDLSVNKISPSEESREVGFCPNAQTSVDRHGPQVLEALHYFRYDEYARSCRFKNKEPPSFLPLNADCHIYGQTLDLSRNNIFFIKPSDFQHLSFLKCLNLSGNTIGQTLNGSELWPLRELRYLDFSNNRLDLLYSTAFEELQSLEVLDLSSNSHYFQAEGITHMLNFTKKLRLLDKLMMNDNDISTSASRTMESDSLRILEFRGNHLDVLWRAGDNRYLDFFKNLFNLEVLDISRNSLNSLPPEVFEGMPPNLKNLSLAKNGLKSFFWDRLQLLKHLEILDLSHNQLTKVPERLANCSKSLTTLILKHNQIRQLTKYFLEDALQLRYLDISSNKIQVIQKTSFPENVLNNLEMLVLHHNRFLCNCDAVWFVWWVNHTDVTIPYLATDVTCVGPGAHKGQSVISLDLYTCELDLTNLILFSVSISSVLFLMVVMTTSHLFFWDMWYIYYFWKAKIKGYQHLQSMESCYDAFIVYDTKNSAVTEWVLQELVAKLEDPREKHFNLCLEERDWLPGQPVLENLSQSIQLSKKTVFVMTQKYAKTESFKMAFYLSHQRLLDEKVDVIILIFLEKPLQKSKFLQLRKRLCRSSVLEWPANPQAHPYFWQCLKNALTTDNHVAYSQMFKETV
Excerpt: HEK-Blue™ mTLR7 cell line (Invivogen) is a stably co-transfected cell line which expresses full-length mouse TLR7 and secretory SEAP reporter gene under the transcriptional regulation of an NF-κB response element. The TLR7 expression of the cell line has been already tested by RT-PCR. Transfectants with stable expression were selected using the antibiotic blasticidin and Zeocin. TLR signaling leads to the translocation of NF-κB and the activation of the promoter results in expression of the SEAP gene. TLR7-specific activation was assessed by determining the level of SEAP produced following overnight incubation of the cells at 37° C. with each compound prepared in Examples and Reference examples in the presence of 0.1% (v/v) DMSO. The mouse TLR7 activity for the present compound was assessed by mouse TLR7 reporter gene assay, and the results are shown in Tables 8 and 9 as the compound concentration which produced half of the maximal level of SEAP induction (EC50).

| EC50 (human TLR7; Table 7, Reference examples) [nM] | EC50 (mouse TLR7; Table 9, Reference examples) [nM] | SMILES | EC50 (human TLR7; Table 6, Examples) [nM] | EC50 (mouse TLR7; Table 8, Examples) [nM] |
| --- | --- | --- | --- | --- |
| 578 | 251 | CCCCOc1nc(N)c2[nH]c(=O)n(Cc3ccc(CNC)nc3)c2n1 [Reference example 12, reference compound] | – | – |
| 12 | 23 | CCCCOc1nc(N)c2[nH]c(=O)n(Cc3ccc(CNC)cc3)c2n1 [Reference example 14, reference compound] | – | – |
| – | – | CCCCOc1nc(N)c2[nH]c(=O)n(Cc3ccc(CN(C)CCOCCOCCOCCOCCO)cc3)c2n1 [Example 3, 6-amino-2-butoxy-9-{[4-(16-hydroxy-2-methyl-5,8,11,14-tetraoxa-2-azahexadecan-1-yl)phenyl]methyl}-7,9-dihydro-8H-purin-8-one] | 24 | 42 |
| – | – | CCCCOc1nc(N)c2[nH]c(=O)n(Cc3ccc(CN(C)CCOCCOCCOCCOCCO)nc3)c2n1 [Example 2, 6-amino-2-butoxy-9-{[6-(16-hydroxy-2-methyl-5,8,11,14-tetraoxa-2-azahexadecan-1-yl)pyridin-3-yl]methyl}-7,9-dihydro-8H-purin-8-one-trifluoroacetate] | 774 | 510 |

Reference: US20220241409A1, “WATER SOLUBLE ADJUVANT AND COMPOSITION CONTAINING SAME” (Sumitomo Dainippon Pharma Co., Ltd., priority 2019, published 2022)
